Reference: patent publication EP4806891A1 (Kangbaida (Sichuan) Biotechnology Co., Ltd., priority 2023, dated 2025)

Molecular target: T1, HEK-Blue-hTLR7 cells (Homo sapiens, UniProt Q9NYK1)
T1 construct: expressed in transfected cells; host or cells: HEK-Blue-hTLR7 cells (HEK293-derived reporter line)
T1 sequence (Q9NYK1 27-1049): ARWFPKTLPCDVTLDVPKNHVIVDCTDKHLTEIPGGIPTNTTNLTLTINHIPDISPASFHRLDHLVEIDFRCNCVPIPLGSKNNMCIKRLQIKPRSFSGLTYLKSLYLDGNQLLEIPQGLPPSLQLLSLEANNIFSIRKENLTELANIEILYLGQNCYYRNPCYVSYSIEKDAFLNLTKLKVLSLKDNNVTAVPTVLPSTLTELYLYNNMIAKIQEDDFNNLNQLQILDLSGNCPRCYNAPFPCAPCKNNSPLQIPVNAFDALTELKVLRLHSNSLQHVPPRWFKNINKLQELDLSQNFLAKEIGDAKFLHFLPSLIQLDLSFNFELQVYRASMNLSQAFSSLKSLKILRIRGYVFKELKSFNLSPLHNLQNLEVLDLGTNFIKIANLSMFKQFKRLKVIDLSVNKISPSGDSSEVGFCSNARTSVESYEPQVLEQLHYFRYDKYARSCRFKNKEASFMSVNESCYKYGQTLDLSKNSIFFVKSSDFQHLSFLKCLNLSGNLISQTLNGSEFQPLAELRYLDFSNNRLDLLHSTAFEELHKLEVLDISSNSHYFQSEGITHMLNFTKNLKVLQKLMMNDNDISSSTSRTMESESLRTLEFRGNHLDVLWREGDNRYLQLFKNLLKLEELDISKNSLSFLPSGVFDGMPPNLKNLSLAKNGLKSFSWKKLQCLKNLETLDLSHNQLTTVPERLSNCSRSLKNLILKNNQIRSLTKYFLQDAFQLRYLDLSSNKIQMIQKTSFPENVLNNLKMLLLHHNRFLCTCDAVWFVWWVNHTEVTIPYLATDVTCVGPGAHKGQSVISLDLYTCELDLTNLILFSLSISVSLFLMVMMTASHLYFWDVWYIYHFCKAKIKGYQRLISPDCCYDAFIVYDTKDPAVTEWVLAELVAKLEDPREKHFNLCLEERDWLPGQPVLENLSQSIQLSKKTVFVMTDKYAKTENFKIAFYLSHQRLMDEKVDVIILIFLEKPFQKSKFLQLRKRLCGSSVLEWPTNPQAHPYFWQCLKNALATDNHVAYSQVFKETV
Assay: HEK-Blue-hTLR7 cell inhibition assay
Type: cell-based
Details: R848 0.8 µM, 16 h, OD 620 nm, read-out: TLR7 IC50
In short: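 Cells were pre-incubated 4 h, then co-treated 16 h at 37 °C with compound (10 doses, 0.5–10000 nM final) plus R848 (0.8 µM for TLR7, 3 µM for TLR8) or ODN2006 (1 µM, TLR9). Reporter OD620 gave inhibition relative to DMSO blank and agonist-only controls; IC50 came from curve fitting.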

SMILES | IC50 [nM]
N#Cc1ccc(N2C[C@]3(c4nnc(C5CCOCC5)o4)C[C@]3(C(F)(F)F)C2)c2cccnc12 [Compound 12, 5-((1S,5R)-1-(5-(tetrahydro-2H-pyran-4-yl)-1,3,4-oxadiazol-2-yl)-5-(trifluoromethyl)-3-azabicyclo[3.1.0]hexan-3-yl)quinoline-8-carbonitrile] | < 100
CN1CC2(CCC(c3nnc([C@]45CN(c6ccc(C#N)c7ncccc67)C[C@@]4(C(F)(F)F)C5)o3)CC2)C1 [Compound 13, 5-((1S,5R)-1-(5-(2-methyl-2-azaspiro[3.5]nonan-7-yl)-1,3,4-oxadiazol-2-yl)-5-(trifluoromethyl)-3-azabicyclo[3.1.0]hexan-3-yl)quinoline-8-carbonitrile] | < 100
CN1CC(c2nnc([C@]34CN(c5ccc(C(F)(F)F)c6ncccc56)C[C@@]3(C(F)(F)F)C4)o2)C1 [Compound 4, 2-(1-methylazetidin-3-yl)-5-((1S,5R)-5-(trifluoromethyl)-3-(8-(trifluoromethyl)quinolin-5-yl)-3-azabicyclo[3.1.0]hexan-1-yl)-1,3,4-oxadiazole] | < 100
CN1CCC(c2nnc([C@]34CN(c5ccc(C#N)c6ncccc56)C[C@@]3(C(F)(F)F)C4)n2C)CC1 [Compound 5, 5-((1S,5R)-1-(4-methyl-5-(1-methylpiperidin-4-yl)-4H-1,2,4-triazol-3-yl)-5-(trifluoromethyl)-3-azabicyclo[3.1.0]hexan-3-yl)quinoline-8-carbonitrile] | < 1000
CN1CC(Cc2nnc([C@]34CN(c5ccc(C(F)(F)F)c6ncccc56)C[C@@]3(C(F)(F)F)C4)o2)C1 [Compound 95, 2-((1-methylazetidin-3-yl)methyl)-5-((1S,5R)-5-(trifluoromethyl)-3-(8-(trifluoromethyl)quinolin-5-yl)-3-azabicyclo[3.1.0]hexan-1-yl)-1,3,4-oxadiazole] | < 100
FC(F)(F)c1ccc(N2C[C@]3(c4nnc(C5(F)CCNCC5)o4)C[C@]3(C(F)(F)F)C2)c2cccnc12 [Compound 3, 2-(4-fluoropiperidin-4-yl)-5-((1S,5R)-5-(trifluoromethyl)-3-(8-(trifluoromethyl)quinolin-5-yl)-3-azabicyclo[3.1.0]hexan-1-yl)-1,3,4-oxadiazole] | < 100
NC(=O)CN1CCC(c2nnc([C@]34CN(c5ccc(C(F)(F)F)c6ncccc56)C[C@@]3(C(F)(F)F)C4)o2)CC1 [Compound 77, 2-(4-(5-((1S,5R)-5-(trifluoromethyl)-3-(8-(trifluoromethyl)quinolin-5-yl)-3-azabicyclo[3.1.0]hexan-1-yl)-1,3,4-oxadiazol-2-yl)piperidin-1-yl)acetamide] | < 100
FC(F)(F)c1ccc(N2C[C@]3(c4nnc(C5CCNCC5)o4)C[C@]3(C(F)(F)F)C2)c2cccnc12 [Compound 75, 2-(piperidin-4-yl)-5-((1S,5R)-5-(trifluoromethyl)-3-(8-(trifluoromethyl)quinolin-5-yl)-3-azabicyclo[3.1.0]hexan-1-yl)-1,3,4-oxadiazole] | < 100
CN1CCC(C)(c2nnc([C@]34CN(c5ccc(C#N)c6ncccc56)C[C@@]3(C(F)(F)F)C4)o2)CC1 [Compound 8, 5-((1S,5R)-1-(5-(1,4-dimethylpiperidin-4-yl)-1,3,4-oxadiazol-2-yl)-5-(trifluoromethyl)-3-azabicyclo[3.1.0]hexan-3-yl)quinoline-8-carbonitrile] | < 100
CN1CCC(Oc2nnc([C@]34CN(c5ccc(C#N)c6ncccc56)C[C@@]3(C(F)(F)F)C4)o2)CC1 [Compound 15, 5-((1S,5R)-1-(5-((1-methylpiperidin-4-yl)oxy)-1,3,4-oxadiazol-2-yl)-5-(trifluoromethyl)-3-azabicyclo[3.1.0]hexan-3-yl)quinoline-8-carbonitrile] | < 100
N#Cc1ccc(N2C[C@]3(c4nnc(C5(F)CCNC5)o4)C[C@]3(C(F)(F)F)C2)c2cccnc12 (stereo partly drawn) [Compound 46, 5-((1S,5R)-1-(5-(3-fluoropyrrolidin-3-yl)-1,3,4-oxadiazol-2-yl)-5-(trifluoromethyl)-3-azabicyclo[3.1.0]hexan-3-yl)quinoline-8-carbonitrile] | < 100
CN1CCC(c2nnc([C@]34CN(c5c(Br)cc(C#N)n6ncc(Br)c56)C[C@@]3(C(F)(F)F)C4)o2)CC1 [Compound 85, 3,5-dibromo-4-((1S,5R)-1-(5-(1-methylpiperidin-4-yl)-1,3,4-oxadiazol-2-yl)-5-(trifluoromethyl)-3-azabicyclo[3.1.0]hexan-3-yl)pyrazolo[1,5-a]pyridine-7-carbonitrile] | > 1000
CN1CCC(c2nnc([C@]34CN(c5c(Br)cc(C#N)n6nccc56)C[C@@]3(C(F)(F)F)C4)o2)CC1 [Compound 86, 5-bromo-4-((1S,5R)-1-(5-(1-methylpiperidin-4-yl)-1,3,4-oxadiazol-2-yl)-5-(trifluoromethyl)-3-azabicyclo[3.1.0]hexan-3-yl)pyrazolo[1,5-a]pyridine-7-carbonitrile] | < 1000
CN1CCC(c2nnc([C@]34CN(c5ccc(C#N)n6ncc(Br)c56)C[C@@]3(C(F)(F)F)C4)o2)CC1 [Compound 83, 3-bromo-4-((1S,5R)-1-(5-(1-methylpiperidin-4-yl)-1,3,4-oxadiazol-2-yl)-5-(trifluoromethyl)-3-azabicyclo[3.1.0]hexan-3-yl)pyrazolo[1,5-a]pyridine-7-carbonitrile] | < 1000
N#Cc1ccc(N2C[C@]3(c4nnc(CC5CNC5)o4)C[C@]3(C(F)(F)F)C2)c2cccnc12 [Compound 35, 5-((1S,5R)-1-(5-(azetidin-3-ylmethyl)-1,3,4-oxadiazol-2-yl)-5-(trifluoromethyl)-3-azabicyclo[3.1.0]hexan-3-yl)quinoline-8-carbonitrile] | < 1000
CN(C)CC#Cc1nnc([C@]23CN(c4ccc(C#N)c5ncccc45)C[C@@]2(C(F)(F)F)C3)o1 [Compound 25, 5-((1S,5R)-1-(5-(3-(dimethylamino)prop-1-yn-1-yl)-1,3,4-oxadiazol-2-yl)-5-(trifluoromethyl)-3-azabicyclo[3.1.0]hexan-3-yl)quinoline-8-carbonitrile] | < 100
CC1(C)CC(Cc2nnc([C@]34CN(c5ccc(C#N)c6ncccc56)C[C@@]3(C(F)(F)F)C4)o2)CC(C)(C)N1 [Compound 26, 5-((1S,5R)-1-(5-((2,2,6,6-tetramethylpiperidin-4-yl)methyl)-1,3,4-oxadiazol-2-yl)-5-(trifluoromethyl)-3-azabicyclo[3.1.0]hexan-3-yl)quinoline-8-carbonitrile] | < 100
CN(C)CCc1nnc([C@]23CN(c4ccc(C#N)c5ncccc45)C[C@@]2(C(F)(F)F)C3)o1 [Compound 51, 5-((1S,5R)-1-(5-(2-(dimethylamino)ethyl)-1,3,4-oxadiazol-2-yl)-5-(trifluoromethyl)-3-azabicyclo[3.1.0]hexan-3-yl)quinoline-8-carbonitrile] | < 100
CN1CCC(c2nnc([C@]34CN(c5ccc(C#N)c6ncccc56)C[C@@]3(C(F)(F)F)C4)[nH]2)CC1 [Compound 9, 5-((1S,5R)-1-(5-(1-methylpiperidin-4-yl)-4H-1,2,4-triazol-3-yl)-5-(trifluoromethyl)-3-azabicyclo[3.1.0]hexan-3-yl)quinoline-8-carbonitrile] | < 100
CN1CCC(Oc2nnc([C@]34CN(c5ccc(OC(F)(F)F)c6ncccc56)C[C@@]3(C(F)(F)F)C4)o2)CC1 [Compound 93, 2-((1-methylpiperidin-4-yl)oxy)-5-((1S,5R)-5-(trifluoromethyl)-3-(8-(trifluoromethoxy)quinolin-5-yl)-3-azabicyclo[3.1.0]hexan-1-yl)-1,3,4-oxadiazole] | < 1000
CN1CCC(Cc2nnc([C@]34CN(c5ccc(C#N)c6ncccc56)C[C@@]3(C(F)(F)F)C4)o2)CC1 [Compound 37, 5-((1S,5R)-1-(5-((1-methylpiperidin-4-yl)methyl)-1,3,4-oxadiazol-2-yl)-5-(trifluoromethyl)-3-azabicyclo[3.1.0]hexan-3-yl)quinoline-8-carbonitrile] | < 100
N#Cc1ccc(N2C[C@]3(c4nnc(N)o4)C[C@]3(C(F)(F)F)C2)c2cccnc12 [Compound 7, 5-((1S,5R)-1-(5-amino-1,3,4-oxadiazol-2-yl)-5-(trifluoromethyl)-3-azabicyclo[3.1.0]hexan-3-yl)quinoline-8-carbonitrile] | < 100
CN1CCC(c2nnc([C@]34CN(c5ccc(C#N)c6ncccc56)C[C@@]3(C(F)(F)F)C4)o2)CC1=O (some centres unmarked) [Compound 34] | < 100
